Data as given in patent publication US20160158200A1, “Combinations of Hepatitis C Virus Inhibitors” (priority 2013, published 2016).

What follows are compounds tested on HCV genotype 1a L31V variant with leucine 31 changed to valine in the NS5A protein (assay: microbe, parasite or virus in culture). Settings: genotype 1a L31V replicon; test compound titrated with compound N47 fixed at 200 nM versus singly.
Assay type: cell-based

Compound | Fold-Synergistic G-1a (L31V) [fold]
COC(=O)N[C@H](C(=O)N1[C@@H]2C[C@@H]2C[C@H]1c1ncc(-c2ccc(-c3ccc(-c4ccc(-c5cnc([C@@H]6C[C@H]7C[C@H]7N6C(=O)[C@@H](NC(=O)OC)C(C)C)[nH]5)cc4)c4[nH]ccc34)cc2)[nH]1)C(C)C | >10
Cc1nc2ccc(-c3cnc(-c4ccc5nc([C@@H]6CCCN6C(=O)[C@@H](c6ccccc6)N(C)C)[nH]c5c4)o3)cc2[nH]1 | <10
O=C(Nc1ccc(C#Cc2ccc(NC(=O)[C@@H]3CCCN3C(=O)CC3CC3)cc2)cc1)[C@@H]1CCCN1C(=O)CC1CC1 | <10
COC(=O)N[C@H](C(=O)N1[C@@H]2C[C@@H]2C[C@H]1c1nc2ccc(C#CC#Cc3ccc4nc([C@@H]5C[C@H]6C[C@H]6N5C(=O)[C@@H](NC(=O)OC)C(C)C)[nH]c4c3)cc2[nH]1)C(C)C | >10
COC(=O)N[C@H](C(=O)N1[C@@H]2C[C@@H]2C[C@H]1c1nc2cc(CCc3ccc4c(ccc5[nH]c([C@@H]6C[C@H]7C[C@H]7N6C(=O)[C@@H](NC(=O)OC)C6CCOCC6)nc54)c3)ccc2[nH]1)C(C)C | >10
CC(=O)N1CCC[C@H]1C(=O)Nc1ccc(-c2nc(-c3ccc(NC(=O)[C@@H]4C=CCN4C(=O)Cc4ccccc4)cc3)cs2)cc1 | <10
COC(=O)N[C@H](C(=O)N1[C@H](c2nc(-c3ccc(-c4ccc(-c5c[nH]c([C@@H]6C[C@@H]7CCC[C@@H]7N6C(=O)[C@@H](NC(=O)OC)C(C)C)n5)cc4)cc3)c[nH]2)C[C@@H]2CCC[C@@H]21)C(C)C | >100

These compounds were tested on HCV genotype-1a variant with glutamine 30 changed to glutamate in the NS5A protein (assay: not given). Settings: test compound titrated with BMS-790052 fixed at 200 nM; genotype 1a Q30E replicon.
Assay type: cell-based
How it was run: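 Synergy was assessed by combining several fixed amounts of an NS5A-targeting compound with a titration of the second compound of interest.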

Compound | Fold-Synergistic 1a (Q30E) [fold]
CC(C)[C@H](NC(=O)N1CCCCC1)c1ncc(-c2ccc(-c3ccc(-c4cnc([C@@H](NC(=O)N5CCCCC5)C(C)C)[nH]4)cc3)cc2)[nH]1 [Compound S-234] | >100
CC(C)[C@H](NC(=O)c1ccc(Cl)cc1)c1ncc(-c2ccc(-c3ccc(-c4cnc([C@@H](NC(=O)c5ccc(Cl)cc5)C(C)C)[nH]4)cc3)cc2)[nH]1 [Compound S-83] | >100
CC(C)(C)[C@H](NC(=O)c1ccc(Cl)cn1)c1nc(-c2ccc(-c3ccc(-c4c[nH]c([C@@H](NC(=O)c5ccc(Cl)cn5)C(C)(C)C)n4)cc3)cc2)c[nH]1 [Compound N-53] | >100
CC(C)[C@H](NC(=O)c1cc(Cl)ccc1F)c1nc(-c2ccc(-c3ccc(-c4c[nH]c([C@@H](NC(=O)c5cc(Cl)ccc5F)C(C)C)n4)cc3F)cc2)c[nH]1.O=C(O)C(F)(F)F [Compound N-99] | >100
CC(C)(C)[C@H](NC(=O)C1CCCOC1)c1nc(-c2ccc(-c3ccc(-c4c[nH]c([C@@H](NC(=O)C5CCCOC5)C(C)(C)C)n4)cc3)cc2)c[nH]1 (some centres unmarked) [Compound W-131] | >100
CC(C)(C)OC(=O)NC1CCCC(C(=O)NC(c2nc(-c3ccc(-c4ccc(-c5c[nH]c(C(NC(=O)C6CCCC(NC(=O)OC(C)(C)C)C6)C(C)(C)C)n5)cc4)cc3)c[nH]2)C(C)(C)C)C1 (mixture of isomers) [Compound S-266] | >100
Cc1cc(-c2ccc(-c3c[nH]c([C@@H](NC(=O)c4c(F)cccc4Cl)C(C)C)n3)cc2)ccc1-c1c[nH]c([C@@H](NC(=O)c2c(F)cccc2Cl)C(C)C)n1.O=C(O)C(F)(F)F [Compound N-81] | >100
CC(C)[C@H](NC(=O)c1cccc(Cl)c1)c1ncc(-c2ccc(-c3ccc(-c4cnc([C@@H](NC(=O)C(C)(C)C)C(C)C)[nH]4)cc3)cc2)[nH]1 [Compound Y-54] | >100
CC(C)(C)[C@H](NC(=O)C(=O)N1CCCC(F)(F)C1)c1nc(-c2ccc(-c3ccc(-c4c[nH]c([C@@H](NC(=O)C(=O)N5CCCC(F)(F)C5)C(C)(C)C)n4)cc3)cc2)c[nH]1 [Compound W-46A] | >100
O=C(C1Cc2ccccc2O1)N1CCC[C@H]1c1ncc(-c2ccc(-c3ccc(-c4cnc([C@@H]5CCCN5C(=O)C5Cc6ccccc6O5)[nH]4)cc3)cc2)[nH]1 (some centres unmarked) [Compound S-157] | >10
CCOC(=O)CC1(C(=O)N[C@H](c2nc(-c3ccc(-c4ccc(-c5c[nH]c([C@@H](NC(=O)C6(NC(=O)OCC)CCCCC6)C(C)(C)C)n5)cc4)cc3)c[nH]2)C(C)(C)C)CCCCC1 [Compound W-250] | >100
CC(C)[C@H](NC(=O)C12CCC(C1)C(C)(C)C2O)c1nc(-c2ccc(-c3ccc(-c4c[nH]c([C@@H](NC(=O)C56CCC(C5)C(C)(C)C6O)C(C)C)n4)cc3)cc2)c[nH]1 (single isomer, unassigned) [Compound Y-114] | >100
COc1ccccc1C(O)C(C)(C)C(=O)N[C@H](c1nc(-c2ccc(-c3ccc(-c4c[nH]c([C@@H](NC(=O)C(C)(C)C(O)c5ccccc5OC)C(C)(C)C)n4)cc3)cc2)c[nH]1)C(C)(C)C (single isomer, unassigned) [Compound N-125C] | >100
COc1cccc(C(=O)N[C@H](c2ncc(-c3ccc(-c4ccc(-c5cnc([C@@H](NC(=O)c6cccc(OC)c6)C(C)C)[nH]5)cc4)cc3)[nH]2)C(C)C)c1 [Compound S-77] | >100
CC(C)[C@H](NC(=O)C(C)(C)n1cccn1)c1ncc(-c2ccc(-c3ccc(-c4cnc([C@@H](NC(=O)C(C)(C)n5cccn5)C(C)C)[nH]4)cc3)cc2)[nH]1 [Compound Y-25] | >100
CC(C)[C@H](NC(=O)n1c2ccccc2c2ccccc21)c1ncc(-c2ccc(-c3ccc(-c4cnc([C@@H](NC(=O)n5c6ccccc6c6ccccc65)C(C)C)[nH]4)cc3)cc2)[nH]1 [Compound S-233] | >100
CC(C)[C@H](NC(=O)C(=O)c1ncccc1F)c1ncc(-c2ccc(-c3ccc(-c4cnc([C@@H](NC(=O)C(=O)c5ncccc5F)C(C)C)[nH]4)cc3)cc2)[nH]1 [Compound P-120] | >100
CC(C)(C)[C@H](NS(=O)(=O)C1(C)CC1)c1nc(-c2ccc(-c3ccc(-c4c[nH]c([C@@H](NS(=O)(=O)C5(C)CC5)C(C)(C)C)n4)cc3)cc2)c[nH]1 [Compound L-120] | >100
CC(C)OC(=O)N1CCC[C@H]1c1ncc(-c2ccc(-c3ccc(-c4cnc([C@@H]5CCCN5C(=O)OC(C)C)[nH]4)cc3)cc2)[nH]1 [Compound S-220] | >10
CC(C)(C)C(NC(=O)C1CC(F)CN1C(=O)OC1CCCC1)c1nc(-c2ccc(-c3ccc(-c4c[nH]c(C(NC(=O)C5CC(F)CN5C(=O)OC5CCCC5)C(C)(C)C)n4)cc3)cc2)c[nH]1 (centres unmarked) [Compound W-111] | >100
CC(C)(C)C(=O)N[C@H](c1nc(-c2ccc(-c3ccc(-c4c[nH]c([C@@H](NC(=O)C(C)(C)C)C(C)(C)C)n4)cc3)cc2)c[nH]1)C(C)(C)C [Compound N-46] | >100
CC(C)(C)OC(=O)N1CCCCC1(C)C(=O)N[C@H](c1nc(-c2ccc(-c3ccc(-c4c[nH]c([C@@H](NC(=O)C5(C)CCCCN5C(=O)OC(C)(C)C)C(C)(C)C)n4)cc3)cc2)c[nH]1)C(C)(C)C (single isomer, unassigned) [Compound L-46b] | >100
CC(C)C(NC(=O)C(C)(C)C(O)C1CC1)c1nc(-c2ccc(-c3ccc(-c4c[nH]c(C(NC(=O)C(C)(C)C(O)C5CC5)C(C)C)n4)cc3)cc2)c[nH]1 (mixture of isomers) [Compound N-149] | >100
CC(C)[C@H](NC(=O)C(C)(C)C)c1ncc(-c2ccc(-c3ccc(-c4cnc([C@@H](NC(=O)C(C)(C)C)C(C)C)o4)cc3)cc2)o1 [Compound N-2] | >100
CC1(C(=O)N2CCC[C@H]2c2ncc(-c3ccc(-c4ccc(-c5cnc([C@@H]6CCCN6C(=O)C6(C)CC6)[nH]5)cc4)cc3)[nH]2)CC1 [Compound S-160] | <10
CC(O)C1(C(=O)N[C@H](c2ncc(-c3ccc(-c4ccc(-c5cnc([C@@H](NC(=O)C6(C(C)O)CC6)C(C)(C)C)[nH]5)cc4)cc3)[nH]2)C(C)(C)C)CC1 (single isomer, unassigned) [Compound B75] | >100
CC(C)(NC(=O)OCCF)C(=O)N[C@H](c1nc(-c2ccc(-c3ccc(-c4c[nH]c([C@@H](NC(=O)C(C)(C)NC(=O)OCCF)C(C)(C)C)n4)cc3)cc2)c[nH]1)C(C)(C)C [Compound Q-4] | >100
COc1ccc2c(C(=O)N3CCC[C@H]3c3ncc(-c4ccc(-c5ccc(-c6cnc([C@@H]7CCCN7C(=O)c7nccc8cc(OC)ccc78)[nH]6)cc5)cc4)[nH]3)nccc2c1 [Compound S-198] | >100

Each compound was assayed on HCV genotype 1a Y93H variant with tyrosine 93 changed to histidine in the NS5A protein (assay: microbe, parasite or virus in culture). Settings: genotype 1a Y93H replicon; test compound titrated with compound N47 fixed at 200 nM versus singly.
Assay type: cell-based
Experimental: Combinations can be examined for synergistic activity using a variety of putative NS5A-targeting compounds and a variety of test compounds. […] The test compound can be chosen from compounds exemplified below, which were prepared by methods known in the art, or from others disclosed in the literature.
Similarly, BMS-790052 can be tested singly and in combination with a fixed amount of compound N47 in the HCV replicon cell based assay consisting of the genotype 1a Y93H variant with tyrosine 93 changed to histidine in the NS5A protein.

Compound | Fold-Synergistic G-1a (Y93H) [fold]
COC(=O)N[C@H](C(=O)N1[C@@H]2C[C@@H]2C[C@H]1c1ncc(-c2ccc(-c3ccc(-c4ccc(-c5cnc([C@@H]6C[C@H]7C[C@H]7N6C(=O)[C@@H](NC(=O)OC)C(C)C)[nH]5)cc4)c4[nH]ccc34)cc2)[nH]1)C(C)C | >10
Cc1nc2ccc(-c3cnc(-c4ccc5nc([C@@H]6CCCN6C(=O)[C@@H](c6ccccc6)N(C)C)[nH]c5c4)o3)cc2[nH]1 | <10
O=C(Nc1ccc(C#Cc2ccc(NC(=O)[C@@H]3CCCN3C(=O)CC3CC3)cc2)cc1)[C@@H]1CCCN1C(=O)CC1CC1 | <10
COC(=O)N[C@H](C(=O)N1[C@@H]2C[C@@H]2C[C@H]1c1nc2ccc(C#CC#Cc3ccc4nc([C@@H]5C[C@H]6C[C@H]6N5C(=O)[C@@H](NC(=O)OC)C(C)C)[nH]c4c3)cc2[nH]1)C(C)C | >100
COC(=O)N[C@H](C(=O)N1[C@@H]2C[C@@H]2C[C@H]1c1nc2cc(CCc3ccc4c(ccc5[nH]c([C@@H]6C[C@H]7C[C@H]7N6C(=O)[C@@H](NC(=O)OC)C6CCOCC6)nc54)c3)ccc2[nH]1)C(C)C | >100
CC(=O)N1CCC[C@H]1C(=O)Nc1ccc(-c2nc(-c3ccc(NC(=O)[C@@H]4C=CCN4C(=O)Cc4ccccc4)cc3)cs2)cc1 | <10
COC(=O)N[C@H](C(=O)N1[C@H](c2nc(-c3ccc(-c4ccc(-c5c[nH]c([C@@H]6C[C@@H]7CCC[C@@H]7N6C(=O)[C@@H](NC(=O)OC)C(C)C)n5)cc4)cc3)c[nH]2)C[C@@H]2CCC[C@@H]21)C(C)C | >100
COC(=O)N[C@H](C(=O)N1CCC[C@H]1c1ncc(-c2ccc([C@H]3CC[C@@H](c4ccc(-c5cnc([C@@H]6CCCN6C(=O)[C@@H](NC(=O)OC)C(C)C)[nH]5)cc4)N3c3ccc(F)cc3)cc2)[nH]1)C(C)C | >10
COC(=O)N[C@H](C(=O)N1CCC[C@H]1c1ncc(-c2ccc([C@H]3CC[C@H](c4ccc(-c5cnc([C@@H]6CCCN6C(=O)[C@@H](NC(=O)OC)C(C)C)[nH]5)cc4)N3c3ccc(F)cc3)cc2)[nH]1)C(C)C | >10
